The record followed here is article PMC8322070, “A novel orally active HDAC6 inhibitor T-518 shows a therapeutic potential for Alzheimer’s disease and tauopathy in mice” (Scientific Reports, 2021).

Data set [1] deals with Histone H3 acetylation in mouse primary neural cultures. As to the kind of experiment: Histone H3 acetylation in mouse primary neural culture (Western blotting). It counts as cell-based. To be noted: DIV6 mouse primary neural culture, 3 and 30 μM, 24 h. The method, then: (§1) T-518, ACY-738, Ricolinostat, and Tubastatin A were synthesized in Takeda. For in vitro cellular experiments, the compounds were solubilized with DMSO and diluted in the culture medium at the indicated concentrations. For in vivo experiments, the compound was reconstituted in 0.5% methylcellulose and administered orally at the indicated doses. After administration, mouse hippocampus was isolated and homogenized in RIPA extraction buffer (50 mM Tris–HCl, 150 mM NaCl, 1% NP-40, 0.5% sodium deoxycholate, and 0.1% SDS, pH 8.0) supplemented with protease and phosphatase inhibitor cocktail (Thermo Fischer, Waltham, MA, USA). The homogenate was centrifuged at 10,000g for 15 min and the supernatant was taken as the RIPA-soluble fraction.
Primary cortical neurons were prepared from E14 C57BL/6J mouse embryos (CLIEA Japan, Inc., Tokyo, Japan) using papain-containing Neuron Dissociation Solutions (Fujifilm Wako, Tokyo, Japan). Isolated cells were suspended in Neurobasal Medium containing B-27 (Thermo Fisher) and seeded on poly-D-lysine-coated plates (Corning, NY, USA) under 5% CO2 at 37 °C for 6 days in vitro (DIV) prior to evaluation of HDAC6 inhibitors. Cells were treated with HDAC6 inhibitors at the indicated concentrations for 24 h and lysed in RIPA extraction buffer (50 mM Tris–HCl, 150 mM NaCl, 1% NP-40, 0.5% sodium deoxycholate, and 0.1% SDS, pH 8.0) supplemented with protease and phosphatase inhibitor cocktail (Thermo Fisher).
Cell lysate or in vivo protein samples were separated by 10% SDS-PAGE, then electrophoretically transferred to 0.45 μm poly-vinylidene difluoride membranes (Millipore). Membranes were blocked for 1 h in Blocking Reagent (TOYOBO, Osaka, Japan), probed with primary antibodies followed by labeling with HRP-coupled secondary antibodies (Amersham, Piscataway, NJ), and then visualized using chemiluminescence reagent (ECL; Amersham). Images were captured using ImageQuant LAS 4000 (GE healthcare Bio-Sciences, Marlborough, MA, USA). Quantitative densitometric analyses were conducted using ImageQuant TL (GE healthcare Bio-Sciences). The protocol was slightly modified for detection of HDAC6 in cortex. Briefly, cerebral cortex was homogenized in RIPA buffer supplemented with 1 μM microstatin, 1 μM MG115, 40 μM Leupeptin, 100 μM ABSF, and 2 mM sodium orthovanadate, separated by 7.5–15% gradient SDS-PAGE and electrophoretically transferred to 0.45 μm poly-vinylidene difluoride membranes (Millipore). Membranes were blocked for 1 h with ECL Prime Blocking Reagent (Amersham, Piscataway, NJ) prior to immunoblotting, visualization, and densitometry as described above.
In general terms: Immunoblotting shows a protein as a band on a membrane.

A further data set has as its system P301S tau Tg mice. As to the kind of experiment: Tau accumulation in hippocampus by RAB-RIPA-FA extraction and Western blotting. The data set is classed as in vivo, mouse. To be noted: 3 mg/kg daily, from 6 to 9 months of age. The method, then:
as §1
Cell lysate or in vivo protein samples were separated by 10% SDS-PAGE, then electrophoretically transferred to 0.45 μm poly-vinylidene difluoride membranes (Millipore). Membranes were blocked for 1 h in Blocking Reagent (TOYOBO, Osaka, Japan), probed with primary antibodies followed by labeling with HRP-coupled secondary antibodies (Amersham, Piscataway, NJ), and then visualized using chemiluminescence reagent (ECL; Amersham). Images were captured using ImageQuant LAS 4000 (GE healthcare Bio-Sciences, Marlborough, MA, USA). Quantitative densitometric analyses were conducted using ImageQuant TL (GE healthcare Bio-Sciences). […]

As for `O=C1c2cc(-c3nnc(C(F)F)o3)cnc2CN1[C@@H]1CCCC[C@H]1NC(=O)C(F)(F)C(F)(F)F` [T-518, N-[(1R,2R)-2-{3-[5-(difluoromethyl)-1,3,4-oxadiazol-2-yl]-5-oxo-5H,6H,7H-pyrrolo[3,4-b]pyridin-6-yl}cyclohexyl]-2,2,3,3,3-pentafluoropropanamide], the “effect on Histone H3 acetylation” value in data set [1] is “neither T-518 nor Tubastatin A at 3 and 30 μM demonstrates this activity”. Moreover, in the data set on P301S tau Tg mice, the “RAB-soluble and RIPA-soluble tau fractions in hippocampus” value was “without affecting”; the “accumulation of tau in the FA fraction (RIPA-insoluble tau) in hippocampus” value was “significantly decreased”.
